What all share (assay): DTP human tumour cell line panel, 48 h
The test system of assay [1] is CAKI-1 renal.
Assay [2] concerns EKVX NSCLC.
The test system of assay [3] is K-562 leukemia.
Assay [4] relates to OVCAR-8 ovarian.
In assay [5] the test system is SF-268 CNS.
The subject of assay [6] is SF-295 CNS.
In assay [7] the test system is SK-MEL-28 melanoma.
Assay [8] has as its system MALME-3M melanoma.

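These data come from cells grown in 96-well plates and exposed to compound for 48 hours at five concentrations. TGI: total growth inhibition.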 A value given as a limit tells only on which side of the number the result lay.

Broadly, the TGI is the concentration giving total growth inhibition. Lower therefore signals greater sensitivity of the cells.

As to `O=C1c2ccccc2C(=O)N1CCN(CCN1C(=O)c2ccccc2C1=O)Cn1cccn1`, the TGI in assay [1], in assay [2], in assay [3], in assay [4], in assay [5] and in assay [6] was over 100 µM each time. In assay [7], this molecule had a concentration for total growth inhibition (TGI) of over 100 µM.
Take `NNC(=O)CNC(=O)c1ccc(Cl)cc1Cl`: the TGI in assay [1], in assay [2], in assay [3], in assay [8], in assay [4] and in assay [5] was over 100 µM in each case. Further, the TGI in assay [6] and in assay [7] was over 100 µM each time.
On to `CC(=O)Nc1cc(N(CCOS(C)(=O)=O)CCOS(C)(=O)=O)ccc1N=O`, for which the TGI in assay [1], in assay [3], in assay [8], in assay [4], in assay [5] and in assay [6] was over 100 µM throughout. Also, the TGI in assay [7] is over 100 µM.
As for `CC(/C(=N\Nc1ccccc1)c1ccc(O)cc1)C1C(=O)Oc2ccccc21` (stereo not drawn), the TGI in assay [1], in assay [2], in assay [3], in assay [8], in assay [4] and in assay [6] was over 100 µM in each case.
Regarding `O=C(O)C[C@H]1CCCCC12CCOC2=O` (stereo partly drawn), the TGI in assay [1], in assay [2], in assay [3], in assay [4], in assay [5] and in assay [6] was over 100 µM each time. The molecule further had a TGI in assay [7] of over 100 µM.
On to `COC(=O)C(Cc1cc(OC)c(OC)c(OC)c1)c1ccc(OC)cc1` (stereo not drawn), for which the TGI in assay [1], in assay [2], in assay [3], in assay [8], in assay [4] and in assay [5] was over 100 µM throughout. For the same molecule, the TGI in assay [6] and in assay [7] was over 100 µM in each case.
`N#Cc1c2c(c(N=P(c3ccccc3)(c3ccccc3)c3ccccc3)n3c1nc1ccccc13)CCCC2`: the total growth inhibition concentration (TGI) was over 100 µM in assay [1]; over 100 µM in assay [2]; 38.2 µM in assay [3]; over 100 µM in assay [8]; over 100 µM in assay [4]; over 100 µM in assay [5]. Moreover, the TGI in assay [6] and in assay [7] was over 100 µM in each case.
Turning to `Cc1cc2c(cc1C)[n+](=O)c(C(=O)C/C(=N/OCCCc1ccccc1)C(=O)Nc1cc(Cl)ccc1Cl)c(C)n2[O-]`, the TGI in assay [1], in assay [2], in assay [3], in assay [8], in assay [4] and in assay [5] was over 100 µM each time. The TGI in assay [6] and in assay [7] was over 100 µM throughout.
Regarding `CO[C@@H]1C=C[C@@]23c4cc5c(cc4C(=O)O[C@H]2CN(C)[C@H]3C1)OCO5`, the TGI in assay [2], in assay [3], in assay [4], in assay [5], in assay [6] and in assay [7] was over 100 µM in each case.
As for `Cc1ccc(NC(=O)C(=O)C(C#N)c2nc(-c3ccc(-c4ccccc4)cc3)cs2)c(C)c1` (stereo not drawn), the TGI in assay [1], in assay [2], in assay [8], in assay [4], in assay [5] and in assay [6] was over 100 µM each time. The molecule also returned a TGI in assay [7] of over 100 µM.
Turning to `CC1(C)C(O)C[C@@H](O)[C@@]2(C)C1CC[C@]1(C)C2C[C@@H](O)[C@@H]2C([C@@]3(C)CC[C@@H](C(C)(C)O)O3)CCC21C` (stereo partly drawn), the TGI in assay [1] is 42.1 µM; in assay [2], 53.9 µM; in assay [3], over 100 µM; in assay [8], 31.8 µM; in assay [4] it was 36.6 µM; in assay [5], 32 µM. Moreover, the TGI came out at 30.2 µM in assay [6] and 27.1 µM in assay [7].
Consider `CCc1c(Cc2[nH]c(Cc3[nH]c(C=O)c(C)c3CC)c(CC)c2CC)[nH]c(C=O)c1C`, for which the TGI in assay [1], in assay [2], in assay [3], in assay [8], in assay [4] and in assay [5] was over 100 µM in each case. In addition, the TGI in assay [6] and in assay [7] was over 100 µM in each case.
For `CCCCCCCCCCCCCC(=O)OCC1OC(n2cc(F)c(=O)[nH]c2=O)C(NC(=O)OCc2ccccc2)C(OC(=O)CCCCCCCCCCCCC)C1O` (stereo not drawn), the TGI in assay [1], in assay [2], in assay [3], in assay [8], in assay [4] and in assay [5] was over 100 µM throughout. Further, the TGI in assay [6] and in assay [7] was over 100 µM throughout.
Regarding `COC(=O)/C=C(\C(=O)OC)c1c2c3c(cc(OC)c(OC)c3c3ccccc13)CCN2C`, the TGI in assay [2] was over 100 µM; in assay [3], 90.8 µM; in assay [8] it was over 100 µM; in assay [4], over 100 µM; in assay [5], over 100 µM; in assay [6], over 100 µM. The TGI in assay [7] is over 100 µM.
With `COC(=O)C(CC(C)C)NC(=O)NC12CC3CC(CC(F)(C3)C1)C2` (stereo not drawn), the TGI in assay [2], in assay [3], in assay [8], in assay [4] and in assay [7] was over 100 µM each time.
Consider `CCCCCCCCOCC(O)COC(=O)CCCCCCC` (stereo not drawn), for which the TGI in assay [1], in assay [3], in assay [8], in assay [4], in assay [5] and in assay [6] was over 100 µM each time. Besides, the TGI in assay [7] was over 100 µM.
Consider `COc1ccc(C2CC(c3cc(C)ccc3O)=NC(N)=N2)cc1` (stereo not drawn), for which the total growth inhibition concentration (TGI) in assay [1], in assay [2], in assay [3], in assay [8], in assay [4] and in assay [5] was over 100 µM throughout. In addition, the concentration for total growth inhibition (TGI) in assay [6] and in assay [7] was over 100 µM throughout.

The values above are taken from PubChem BioAssay (NCI).
